Reference: patent US7884093B2, “Progesterone for the treatment or prevention of spontaneous preterm birth” (priority 2007, dated 2011)

Key:
[1] = system: cervix length of pregnant women; assay: Cervical length by transvaginal ultrasound at baseline and at 28 weeks of gestation; type: in vivo, human; conditions: baseline to 28 weeks gestation, all participants, 6-10 weeks of dosing
Experimental: (§1) Following randomization, daily treatment was initiated by the patient and continued until 37 0/7 weeks' gestational age, occurrence of preterm rupture of membranes, or delivery. Each patient was evaluated at 2-week intervals. All subjects had another transvaginal ultrasound to determine cervical length at 28 weeks of gestation.
Prior to beginning the study, baseline measurements of each of the participant's cervical length were taken and are summarized in FIG. 1. During the study, cervical length measurements were made by ultrasound at both baseline and later at 28 weeks after a period of 6-10 weeks of dosing. The mean cervix length of 3.7 cm was the same for both the treatment and placebo groups, and the range of cervical length for all participants was between 1.1 cm and 7.9 cm. At 28 weeks gestation, each participant's cervix was re-measured and the data was compared to the baseline data, and an unexpected and surprising finding was discovered.

[2] = system: pregnant women with a history of spontaneous preterm birth; assay: Randomized, double-blind, placebo-controlled trial of vaginal progesterone gel on preterm birth; type: in vivo, human
Experimental: In light of the state of the art, a study was conducted to examine the effects of progesterone on preterm labor and premature birth in women with a history of a previous preterm birth. […] The selection, categorization, and breakdown of the two groups is outlined in the flow chart of FIG. 2. The study was a prospective, randomized, placebo-controlled, double-blind, multicenter trial in pregnant subjects at high risk of spontaneous preterm delivery. The study participants were screened from 16 0/7 and 22 6/7 weeks gestational age. Subjects were randomized to drug or placebo from 18 0/7 to 22 6/7 weeks.
(§2) Subjects meeting the study criteria were enrolled by the investigator between 18 0/7 and 22 6/7 weeks and received identically packaged, sequentially numbered progesterone or placebo vaginal gel in a 1:1 ratio. A SAS (SAS Institute Inc., Cary, N.C., USA) procedure for variable block size was used to generate a randomization schedule stratified by study site and by inclusion criteria (prior preterm birth or short cervix). Quintiles, Inc. (Kansas City, Mo., USA) generated the randomization sequences, which were confidentially provided to the packaging company. Treatment allocation was concealed by an identical packaging and labelling process performed by Aptuit, Inc. (Mount Laurel, N.J., USA). The study patients, obstetric care providers, study investigators, study coordinators, and study monitors were blind to the exposure status (progesterone or placebo) of all study patients.
Subjects were randomized in a 1:1 ratio to receive PROCHIEVE® 8% (vaginally administered 90 mg natural progesterone gel) or placebo vaginal gel. All women performed self-dosing on a daily basis of their assigned study medication, either PROCHEIVE® (progesterone) or placebo.
Statistical analysis was based on the intent-to-treat principle.
Patients who were currently or previously enrolled in another investigational study within 1 month prior to screening for the present study were not included in the trial. Patients were also restricted from participation in the trial if the present pregnancy was complicated by a major fetal anomaly or a known chromosome disorder, or was a multifetal gestation. Patients with a cervical cerclage in place, or those intending to have one placed during the current pregnancy, were excluded from study participation, as were those with signs of preterm rupture of membranes, vaginal bleeding, amnionitis, or preterm labor at enrollment.
The study drug was packaged and labelled according to the 1:1 randomization scheme provided by Quintiles, Inc (Kansas City, Mo., USA). A SAS (SAS Institute Inc., Cary, N.C., USA) procedure for variable block size was used to generate the randomization schedule stratified by study site. […] The study drug (Prochieve® 8% progesterone gel) and placebo (Replens®) were provided by Columbia Laboratories, Inc. (Livingston, N.J., USA). Patients were instructed to self-administer the full applicator of vaginal gel at approximately the same time daily, preferably in the morning. Patients received a 2-week supply of the allocated treatment at the time of randomization, and at every 2-week study visit thereafter. All drug supplies were to be brought in at each visit at all study centers, and compliance with the study medication was determined from returned empty wrappers and unused wrappers. Percent compliance was assessed as total treatment duration compliance: (total applicators used/total dosing days)×100. Total dosing days was defined as the interval from enrollment to either the date of preterm premature rupture of membranes, the date of preterm birth without accompanying ruptured membranes, or 37 0/7 weeks' gestation.
The occurrence of adverse events was queried at each 2-week study visit at all centers by asking if the patient had any complaints or problems. Subjects received an extra 1-week drug supply when treatment was initiated in case they could not make the next regularly scheduled appointment.

[3] = system: pregnant women at risk of preterm birth; conditions: cited from earlier work
[4] = system: pregnant women with a short cervix; assay: Randomized trial, analysis of women with a shortened cervix in the midtrimester; type: in vivo, human
Experimental: The study further included women without a history of preterm birth and having a short cervix at the time of enrollment. […] The lowest quartile (≦3.2 cm) was combined with the short cervix only patients and subdivided sequentially and the primary and secondary outcomes for women with cervical lengths of ≦3.0 cm and <2.8 cm at the time of enrollment were analyzed. There were an insufficient number of patients with even shorter cervical lengths available for further analysis. For the purposes of the study, the criteria for short cervix was set at less than 2.8 cm.
The study included women with a documented history of spontaneous preterm birth (<35 weeks) in a singleton pregnancy in the immediate preceding parity regardless of cervical length, and women without a history of preterm birth but with midtrimester cervical shortening (≦2.5 cm) in the current pregnancy were offered enrollment in the study at 18 0/7-22 6/7 weeks of gestation. Recruitment began in April 2004 and the last patient delivered Jan. 8, 2007.
Therefore, women were excluded if any of the following conditions were present: age <18 or >45 years; multifetal gestation; history of an adverse reaction to progesterone or any component present in the treatment medication; treatment with progesterone within 4 weeks preceding enrollment; or current treatment for a seizure disorder, psychiatric disorder, or chronic hypertension. […] Patients who were currently or previously enrolled in another investigational study within one month prior to randomization were not included.
Patients were also restricted from participation in the trial if the present pregnancy was complicated by a major fetal anomaly or a known chromosome disorder. Patients with a cervical cerclage in place, or those intending to have one placed during the current pregnancy, were excluded from the study, as were those with signs of preterm rupture of membranes, vaginal bleeding, amnionitis, or preterm labor at enrollment.
as §2, with “Women with a history of spontaneous preterm birth in the preceding pregnancy regardless of cervical length or women without a history of preterm birth but with midtrimester cervical shortening in the current pregnancy were screened by the investigator or study coordinator between 16 0/7 and 22 6/7 weeks of gestation. Prior history of spontaneous preterm birth was confirmed by evaluation of the patient's medical records before enrollment. Gestational age was based on the patient's last menstrual period and correlated with an ultrasound biometry algorithm. Each patient had at least one ultrasound examination before randomization to confirm gestational age and rule out major fetal anomalies, and a transvaginal scan to determine the length of the cervix. Subjects” for “Subjects”
as §1

[5] = ITT, history of spontaneous preterm birth
[6] = neonates, history of spontaneous preterm birth
[7] = baseline cervical length ≦3.0 cm, total 58
[8] = cervical length <2.8 cm, versus placebo

SMILES: CC(=O)[C@H]1CC[C@H]2[C@@H]3CCC4=CC(=O)CC[C@]4(C)[C@H]3CC[C@]12C [progesterone]
- mean decrease in cervix length [1]: 0.44 cm
- admissions for preterm labor [2, 5]: 25.6%
- head circumference of the neonates [2, 5]: 32.3±3.34 cm
- mean birth weight of the neonates [2, 5]: 2680±710 gm
- mean gestational age at delivery [2, 5]: 36.6 weeks
- rate of preterm birth at <37 0/7 weeks [2, 5]: 41.7%
- rate of preterm birth at ≦28 0/7 weeks [2, 5]: 3.2%
- rate of preterm birth at ≦35 0/7 weeks [2, 5]: 22.7%
- rate of preterm rupture of membranes [2, 5]: 12.0%
- rate of stillbirth/intrauterine fetal demise [2, 5]: 1.6%
- rate of preterm birth at ≦32 0/7 weeks of gestation (primary outcome) ([2]; ITT, history of spontaneous preterm birth, 8% progesterone vaginal gel 90 mg once daily): 10.0%
- 1-minute APGAR score, median ([2]; neonates): 8
- 5-minute APGAR score, median ([2]; neonates): 9
- occurrence of grade 3 or 4 intraventricular haemorrhage [2, 6]: 0.3%
- occurrence of necrotizing enterocolitis [2, 6]: 1.0%
- occurrence of newborn respiratory distress syndrome [2, 6]: 11.0%
- rate of admission to a neonatal intensive care unit [2, 6]: 17.5%
- number of days from admission to delivery ([2]; patients admitted for treatment of preterm labor): 30 days
- mean gestational age at delivery, infant morbidity or mortality, or other maternal or neonatal outcome measure ([2]; versus placebo, in words): no difference
- treatment emergent adverse events ([2]; versus placebo, in words): similar
- frequency of preterm birth at ≦32 weeks ([2]; versus placebo, in words, history of spontaneous preterm birth): did not decrease
- frequency of preterm birth at ≦32 weeks ([2]; versus placebo, in words, history of spontaneous preterm birth, listed as vaginal progesterone gel): does not effectively reduce
- occurrence of perinatal death ([3]; Dodd et al. meta-analysis of randomized trials, versus placebo): no statistically significant difference
- frequency of recurrent preterm birth ([3]; O'Brien et al., high risk women selected by a history of spontaneous preterm birth, prophylactic vaginal gel): does not effectively reduce
- time to delivery (Kaplan-Meier curve) ([4]; baseline cervical length greater than 3.2 cm, versus placebo): no statistically significant difference
- time to delivery (Kaplan-Meier curve) ([4]; baseline cervical length less than 2.8 cm, versus placebo): probability of not delivering over a longer gestation period
- time to delivery (Kaplan-Meier curve) ([4]; baseline cervical length less than or equal to 3.0 cm, versus placebo): probability of not delivering over a longer gestation period
- time to delivery (Kaplan-Meier curve) ([4]; baseline cervical length less than or equal to 3.2 cm, versus placebo): probability of not delivering over a longer gestation period
- Births >32 Weeks, Number ([4]; baseline cervical length ≦2.8 cm, total 19): 19
- Births >32 Weeks, Number [4, 7]: 54
- Births ≦32 Weeks, Number [4, 7]: 4
- NICU admissions ([4]; cervical length <2.8 cm): 15.8%
- fetal/infant deaths ([4]; cervical length <2.8 cm): none
- length of NICU stay ([4]; cervical length <2.8 cm): 1.1 days
- preterm deliveries at less than or equal to 28 weeks, number ([4]; cervical length <2.8 cm): no preterm deliveries
- rate of neonatal respiratory distress syndrome ([4]; cervical length <2.8 cm): 5.3%
- total neonatal hospital days ([4]; cervical length <2.8 cm): 5.8 days
- rate of preterm birth at ≦32 weeks ([4]; cervical length <2.8 cm at enrollment, 19 on progesterone): 0%
- reduction of the number of preterm delivery at less than 35 weeks [4, 8]: about half
- reduction of the number of preterm delivery at less than or equal to 37 weeks [4, 8]: about half
- delivering ≦32 weeks gestation ([4]; short cervix only population, no history of preterm birth, 4 patients on progesterone): 0
